# Measurements published in BindingDB's records for doi:10.1016/j.bmcl.2010.06.084 (Phenex Pharmaceuticals, 2010).
# Target: T1, Nuclear receptor subfamily 1 group I member 2 (Homo sapiens, UniProt O75469)
# T1 sequence (O75469 whole entry): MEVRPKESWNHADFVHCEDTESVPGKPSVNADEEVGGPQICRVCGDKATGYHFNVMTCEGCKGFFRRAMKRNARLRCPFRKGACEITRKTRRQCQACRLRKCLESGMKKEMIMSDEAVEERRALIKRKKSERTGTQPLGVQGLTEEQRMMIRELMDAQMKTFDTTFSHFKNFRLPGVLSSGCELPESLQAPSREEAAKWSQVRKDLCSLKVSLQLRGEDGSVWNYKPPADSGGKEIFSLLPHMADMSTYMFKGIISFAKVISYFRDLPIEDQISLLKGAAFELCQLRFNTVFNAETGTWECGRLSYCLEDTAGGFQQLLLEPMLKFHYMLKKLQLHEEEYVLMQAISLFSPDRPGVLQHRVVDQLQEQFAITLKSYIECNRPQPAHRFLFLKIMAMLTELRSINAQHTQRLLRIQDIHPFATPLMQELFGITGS
# Assay: Agonist activity at PXR-LBD expressed in HEK293 cells assessed as Gal4-DBD interaction by cellular mammalian one hybrid assay
row,EC50 [nM],SMILES
1,390,"CN(Cc1cccc(C(=O)O)c1)c1ccc(OCc2c(-c3c(Cl)cccc3Cl)noc2C2CC2)nc1C(F)(F)F [3-(((6-((5-cyclopropyl-3-(2,6-dichlorophenyl)isoxazol-4-yl)methoxy)-2-(trifluoromethyl)pyridin-3-yl)(methyl)amino)methyl)benzoic acid]"
2,3870,"CN(Cc1ccc(C(=O)O)cc1)c1ccc(OCc2c(-c3c(Cl)cccc3Cl)noc2C2CC2)nc1C(F)(F)F [4-(((6-((5-cyclopropyl-3-(2,6-dichlorophenyl)isoxazol-4-yl)methoxy)-2-(trifluoromethyl)pyridin-3-yl)(methyl)amino)methyl)benzoic acid]"
3,> 1280,"CC(C)c1onc(-c2c(Cl)cccc2Cl)c1COc1ccc(N(C)Cc2ccc(C(=O)O)cc2)c(C(F)(F)F)n1 [4-(((6-((3-(2,6-dichlorophenyl)-5-isopropylisoxazol-4-yl)methoxy)-2-(trifluoromethyl)pyridin-3-yl)(methyl)amino)methyl)benzoic acid]"
